For this assay, the system named is Mycobacterium tuberculosis H37Rv (ATCC: 25177). Kind of assay: Anti-tubercular activity, colorimetric Resazurin Microplate Assay (REMA). As to conditions: 192 h, read-out: Anti-tubercular activity against Mycobacterium tuberculosis H37Rv (MIC). The format is cell-based. (In general: The colour change of resazurin is a common sign of viable cells or microbes.)

As a reminder, the MIC is the least concentration at which growth counts as inhibited. As for `CC(C)OC(=O)c1cc[n+](CC(=O)c2ccc(F)cc2)cc1.[Br-]` [Compound 4b, 1-(2-(4-Fluorophenyl)-2-oxoethyl)-4-(isopropoxycarbonyl)pyridin-1-ium bromide], the minimal inhibitory concentration (MIC) is 1 µg/mL.

Consider `CC(C)OC(=O)c1cc[n+](CC(=O)c2ccccc2)cc1.[Br-]` [Compound 4a, 4-(Isopropoxycarbonyl)-1-(2-oxo-2-phenylethyl)pyridin-1-ium Bromide], for which the MIC came to 0.5 µg/mL.
